Legend:
[1] = biological target: T1, Amine oxidase [flavin-containing] A (Homo sapiens, UniProt P21397); experiment: Inhibition of MAO-A (unknown origin)
T1 sequence (P21397 whole entry): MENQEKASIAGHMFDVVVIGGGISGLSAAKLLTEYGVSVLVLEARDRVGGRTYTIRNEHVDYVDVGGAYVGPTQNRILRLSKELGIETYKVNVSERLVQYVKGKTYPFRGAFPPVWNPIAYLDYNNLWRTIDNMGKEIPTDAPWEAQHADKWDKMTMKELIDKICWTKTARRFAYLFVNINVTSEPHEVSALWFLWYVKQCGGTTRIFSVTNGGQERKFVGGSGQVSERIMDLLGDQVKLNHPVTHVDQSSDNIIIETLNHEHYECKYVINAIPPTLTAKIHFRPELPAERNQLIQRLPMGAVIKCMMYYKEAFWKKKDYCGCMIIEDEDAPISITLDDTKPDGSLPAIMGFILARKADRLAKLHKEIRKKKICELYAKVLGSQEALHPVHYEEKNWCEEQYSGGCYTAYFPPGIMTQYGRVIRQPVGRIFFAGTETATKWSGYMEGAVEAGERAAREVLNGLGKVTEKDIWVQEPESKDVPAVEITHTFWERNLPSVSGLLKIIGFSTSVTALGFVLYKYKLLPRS

[2] = biological target: T2, Amine oxidase [flavin-containing] B (Homo sapiens, UniProt P27338); experiment: Inhibition of MAO-B (unknown origin)
T2 sequence (P27338 whole entry): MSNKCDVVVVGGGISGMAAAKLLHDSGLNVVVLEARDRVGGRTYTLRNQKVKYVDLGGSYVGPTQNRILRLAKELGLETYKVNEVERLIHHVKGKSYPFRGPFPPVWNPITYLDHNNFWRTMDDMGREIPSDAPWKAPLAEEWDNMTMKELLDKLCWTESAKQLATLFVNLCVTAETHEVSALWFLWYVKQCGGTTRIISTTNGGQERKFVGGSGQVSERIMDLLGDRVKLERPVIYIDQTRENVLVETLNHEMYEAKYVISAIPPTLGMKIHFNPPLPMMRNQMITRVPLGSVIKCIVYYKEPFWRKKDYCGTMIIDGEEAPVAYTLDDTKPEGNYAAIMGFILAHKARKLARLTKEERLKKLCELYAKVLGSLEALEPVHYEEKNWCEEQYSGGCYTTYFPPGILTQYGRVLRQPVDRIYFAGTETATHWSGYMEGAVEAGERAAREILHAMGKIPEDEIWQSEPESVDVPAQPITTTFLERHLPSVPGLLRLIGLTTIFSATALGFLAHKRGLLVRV

[3] = biological target: T3, Acetylcholinesterase (Electrophorus electricus, UniProt O42275); experiment: Inhibition of electric eel AChE using acetylthiocholine iodide as substrate preincubated for 5 mins followed by substrate addition by DTNB reagent based Ellman's method
T3 sequence (O42275 whole entry): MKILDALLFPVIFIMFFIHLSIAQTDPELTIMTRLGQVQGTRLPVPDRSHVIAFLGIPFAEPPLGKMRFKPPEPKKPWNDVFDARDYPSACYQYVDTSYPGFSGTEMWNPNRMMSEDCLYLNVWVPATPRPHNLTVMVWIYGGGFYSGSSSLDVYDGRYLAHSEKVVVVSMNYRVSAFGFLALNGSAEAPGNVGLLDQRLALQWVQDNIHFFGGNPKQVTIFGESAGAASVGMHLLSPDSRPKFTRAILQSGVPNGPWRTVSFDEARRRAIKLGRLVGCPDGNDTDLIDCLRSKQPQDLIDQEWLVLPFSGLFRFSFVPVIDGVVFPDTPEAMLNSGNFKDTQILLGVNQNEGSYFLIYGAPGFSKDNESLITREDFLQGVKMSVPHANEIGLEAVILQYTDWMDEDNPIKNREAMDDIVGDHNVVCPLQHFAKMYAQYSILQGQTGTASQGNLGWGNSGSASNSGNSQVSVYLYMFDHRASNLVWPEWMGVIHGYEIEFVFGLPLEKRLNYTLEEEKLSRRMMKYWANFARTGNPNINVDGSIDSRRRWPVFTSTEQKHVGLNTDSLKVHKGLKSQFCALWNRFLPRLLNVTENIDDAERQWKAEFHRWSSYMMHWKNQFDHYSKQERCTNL

[4] = biological target: T4, Cholinesterase (Homo sapiens, UniProt P06276); experiment: Inhibition of BChE (unknown origin) incubated for 10 mins by Ellman's method
T4 sequence (P06276 whole entry): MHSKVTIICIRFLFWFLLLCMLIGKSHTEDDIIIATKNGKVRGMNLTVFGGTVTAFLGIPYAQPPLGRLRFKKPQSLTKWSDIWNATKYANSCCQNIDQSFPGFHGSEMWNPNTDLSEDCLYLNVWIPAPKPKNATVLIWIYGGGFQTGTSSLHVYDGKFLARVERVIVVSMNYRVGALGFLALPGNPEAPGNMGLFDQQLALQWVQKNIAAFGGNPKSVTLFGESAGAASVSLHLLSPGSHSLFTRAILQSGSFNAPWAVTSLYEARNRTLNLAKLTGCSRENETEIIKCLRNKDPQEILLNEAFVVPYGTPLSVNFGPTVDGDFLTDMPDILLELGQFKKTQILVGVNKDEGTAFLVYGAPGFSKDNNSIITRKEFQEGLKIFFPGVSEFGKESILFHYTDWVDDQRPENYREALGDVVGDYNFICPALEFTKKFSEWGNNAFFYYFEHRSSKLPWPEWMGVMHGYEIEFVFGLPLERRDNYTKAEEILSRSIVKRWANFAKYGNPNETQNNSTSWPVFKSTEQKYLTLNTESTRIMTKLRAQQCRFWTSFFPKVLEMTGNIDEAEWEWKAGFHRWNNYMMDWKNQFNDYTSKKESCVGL

[5] = biological target: T5, Acetylcholinesterase (Homo sapiens, UniProt P22303)
T5 sequence (P22303 whole entry): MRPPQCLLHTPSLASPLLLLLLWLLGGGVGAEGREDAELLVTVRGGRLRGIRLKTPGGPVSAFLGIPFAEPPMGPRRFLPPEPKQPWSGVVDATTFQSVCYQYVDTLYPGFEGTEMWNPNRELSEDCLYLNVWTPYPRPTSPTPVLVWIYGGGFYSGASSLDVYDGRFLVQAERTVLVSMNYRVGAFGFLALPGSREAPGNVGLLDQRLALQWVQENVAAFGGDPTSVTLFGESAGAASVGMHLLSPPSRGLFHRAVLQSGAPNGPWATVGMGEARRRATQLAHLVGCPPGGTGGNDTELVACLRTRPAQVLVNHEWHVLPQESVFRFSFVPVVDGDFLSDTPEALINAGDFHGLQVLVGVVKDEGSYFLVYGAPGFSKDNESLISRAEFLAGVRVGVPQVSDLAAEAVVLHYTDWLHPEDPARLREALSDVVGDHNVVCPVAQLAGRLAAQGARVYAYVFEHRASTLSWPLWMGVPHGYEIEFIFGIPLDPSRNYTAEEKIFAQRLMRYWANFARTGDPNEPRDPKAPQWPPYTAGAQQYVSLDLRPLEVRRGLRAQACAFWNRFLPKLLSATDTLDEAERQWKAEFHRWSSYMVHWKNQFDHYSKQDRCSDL
Description: Inhibition of human AChE by Ellman's method

[6] = biological target: Cholinesterase (Equus caballus, UniProt P81908); experiment: Inhibition of equine serum BuChE using butyrylthiocholine iodide as substrate preincubated for 5 mins followed by substrate addition by DTNB reagent based Ellman's method
Chain of Cholinesterase (Equus caballus, UniProt P81908) (P81908 whole entry): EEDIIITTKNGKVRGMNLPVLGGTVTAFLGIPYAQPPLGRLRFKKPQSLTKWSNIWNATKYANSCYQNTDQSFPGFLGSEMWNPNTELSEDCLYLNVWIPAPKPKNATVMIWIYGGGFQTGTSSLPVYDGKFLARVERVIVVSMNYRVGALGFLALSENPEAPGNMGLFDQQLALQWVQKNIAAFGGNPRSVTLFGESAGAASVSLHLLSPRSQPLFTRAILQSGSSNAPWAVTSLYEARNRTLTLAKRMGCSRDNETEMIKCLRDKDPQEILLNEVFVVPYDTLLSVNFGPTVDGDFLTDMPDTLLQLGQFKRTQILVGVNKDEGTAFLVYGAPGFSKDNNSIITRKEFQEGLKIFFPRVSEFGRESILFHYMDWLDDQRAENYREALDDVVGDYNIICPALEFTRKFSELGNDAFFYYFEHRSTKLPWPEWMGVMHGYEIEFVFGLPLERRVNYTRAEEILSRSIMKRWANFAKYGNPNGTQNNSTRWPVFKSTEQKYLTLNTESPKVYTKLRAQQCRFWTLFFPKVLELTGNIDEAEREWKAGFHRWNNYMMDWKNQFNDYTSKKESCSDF

[7] = biological target: T6, Beta-secretase 1 (Homo sapiens, UniProt P56817); experiment: Inhibition of BACE-1 (unknown origin)
T6 sequence (P56817 whole entry): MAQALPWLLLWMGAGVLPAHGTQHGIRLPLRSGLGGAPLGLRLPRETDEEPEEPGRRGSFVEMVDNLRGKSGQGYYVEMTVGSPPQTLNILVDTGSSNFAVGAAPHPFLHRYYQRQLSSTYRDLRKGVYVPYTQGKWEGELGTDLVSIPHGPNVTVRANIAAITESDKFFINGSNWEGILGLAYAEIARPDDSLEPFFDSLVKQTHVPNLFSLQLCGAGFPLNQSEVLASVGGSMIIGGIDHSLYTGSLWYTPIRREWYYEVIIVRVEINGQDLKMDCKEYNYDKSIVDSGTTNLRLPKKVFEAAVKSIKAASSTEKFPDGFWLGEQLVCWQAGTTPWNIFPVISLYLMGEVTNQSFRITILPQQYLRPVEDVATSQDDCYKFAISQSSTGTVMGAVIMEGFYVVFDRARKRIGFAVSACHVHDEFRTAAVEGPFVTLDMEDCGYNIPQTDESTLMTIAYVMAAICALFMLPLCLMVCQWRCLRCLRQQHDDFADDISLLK

[8] = biological target: T6, Beta-secretase 1; experiment: Inhibition of human BACE-1 by FRET assay
[9] = biological target: T5, Acetylcholinesterase; experiment: Inhibition of human recombinant AChE using acetylthiocholine iodide as substratE incubated for 20 mins by DTNB reagent based Ellman's method
[10] = biological target: T3, Acetylcholinesterase; experiment: Inhibition of electric eel AChE using acetylthiocholine iodide as substrate preincubated with compounds for 20 mins followed by substrate addition and measured after 5 mins by Ellman's method
[11] = biological target: T6, Beta-secretase 1; experiment: Inhibition of BACE-1 (unknown origin) measured after 2 hrs by FRET assay
[12] = biological target: T5, Acetylcholinesterase; experiment: Inhibition of AChE (unknown origin) using acetylthiocholine iodide as substrate measured for 20 mins by Ellman's method
[13] = biological target: T5, Acetylcholinesterase; experiment: Inhibition of AChE (unknown origin)
[14] = biological target: T2, Amine oxidase [flavin-containing] B; experiment: Inhibition of human MAO-B using Tyramine hydrochloride as substrate preincubated for 30 mins followed by substrate addition and measured for 1 hr by fluorometric method
[15] = biological target: T4, Cholinesterase; experiment: Inhibition of human BChE using butyrylthiocholineiodide as substrate measured for 30 mins by Ellman's method
[16] = biological target: T5, Acetylcholinesterase; experiment: Inhibition of human AChE using acetylthiocholine iodide as substrate measured for 1 hr by Ellman's method
[17] = biological target: T5, Acetylcholinesterase; experiment: Inhibition of AChE (unknown origin) by Ellman's method
[18] = biological target: T5, Acetylcholinesterase; experiment: Inhibition of AChE (unknown origin) incubated for 1 hr by Ellman's method
[19] = biological target: T5, Acetylcholinesterase; experiment: Inhibition of AChE (unknown origin) using acetylthiocholine iodide as substrate measured after 15 mins by Ellman's method
[20] = biological target: T5, Acetylcholinesterase; experiment: Inhibition of AChE (unknown origin) at 40 uM by Ellman's method relative to control

Compound: O=C(/C=C/c1ccc(Cl)cc1)c1ccc(Cl)s1
- IC50 [1]: 1600 nM
- IC50 [2]: 790 nM
- IC50 [3]: 14800 nM
- IC50 [4]: 19600 nM

Compound: O=c1ccoc2ccc(OCCCN3CCCCC3)cc12
- IC50 [5]: 5580 nM
- IC50 [2]: 7200 nM

Compound: Clc1ccc(-c2nnc(CNC3CCN(Cc4ccccc4)CC3)o2)c(Cl)c1
- IC50 [6]: 210 nM
- IC50 [7]: 250 nM

Compound: COc1ccccc1NC(=O)C1CCN(Cc2ccccc2)CC1
- IC50 [8]: 277 nM
- IC50 [9]: 157 nM

Compound: CCO/C(C)=N/Oc1ccc(/C=C/C(=O)c2ccc(F)cc2)cc1
- IC50 [1]: 17400 nM
- IC50 [2]: 20 nM
- IC50 [3]: 670 nM

Compound: COc1ccc2c(c1)C/C(=C/c1ccccc1-c1ccccc1)C2=O
- IC50 [10]: 29.8 nM
- IC50 [11]: 125 nM

Compound: COc1cc(/C=C2\Oc3cc(OCCN4CCCCC4)ccc3C2=O)cc(OC)c1OC
- IC50 [1]: > 100000 nM
- IC50 [2]: 340 nM
- IC50 [12]: 1560 nM

Compound: CCOc1ccc(C(=O)/C=C/c2ccccc2)cc1
- IC50 [1]: 28500 nM
- IC50 [2]: 400 nM
- IC50 [3]: 3230 nM

Compound: COc1ccc(/C=C2\Oc3cc(OCCN4CCCC4)ccc3C2=O)c(OC)c1OC
- IC50 [5]: 1560 nM
- IC50 [2]: 340 nM

Compound: COc1ccc(NC(=O)C2CCN(Cc3ccccc3)CC2)cc1OC
- IC50 [8]: 243 nM
- IC50 [9]: 145 nM

Compound: O=C(/C=C/c1ccccc1)c1ccccc1 [CHALCONE]
- IC50 [13]: 28200 nM

Compound: COc1ccc(/C=C/C(=O)c2ccccc2O)cc1OC
- IC50 [14]: 1410 nM
- IC50 [13]: 28000 nM

Compound: [O-]/[N+](=C\c1ccc2cccc(O)c2n1)Cc1ccccc1
- IC50 [15]: 1 nM
- IC50 [16]: 30 nM

Compound: CCN(CCCCOc1ccc(C(=O)/C=C/c2ccc(N(C)C)cc2)c(O)c1)Cc1ccccc1N(C)C
- IC50 [3]: 130 nM
- IC50 [4]: 130 nM

Compound: COc1ccc2c(c1)C/C(=C/c1ccccc1-c1ccc3ccccc3c1)C2=O
- IC50 [8]: 101 nM

Compound: COc1ccc2c3c1O[C@H]1C[C@@H](O)C=C[C@@]31CCN(CCCCCCNC13CC4CC(C)(CC(C)(C4)C1)C3)C2 [MEMAGAL]
- IC50 [17]: 1.16 nM

Compound: CN(C)c1ccc(/C=C/C(=O)c2ccc(N3CCOCC3)cc2)cc1
- IC50 [1]: > 40000 nM
- IC50 [4]: > 40000 nM

Compound: COc1ccc([C@@H]2c3[nH]c4ccccc4c3C[C@H]3C(=O)N(CCC4CCN(Cc5ccccc5)CC4)CC(=O)N23)cc1
- IC50 [17]: 10 nM

Compound: COc1ccc(/C=N/NC(=O)c2ccc(Cl)nc2)cc1OC
- IC50 [18]: 30 nM
- IC50 [7]: 400 nM

Compound: Cc1ccc(/C=C/C(=O)c2ccccc2N)cn1
- IC50 [19]: 2920 nM

Compound: COc1ccc([C@@H]2c3[nH]c4ccccc4c3C[C@@H]3C(=O)N(CCC4CCN(Cc5ccccc5)CC4)CC(=O)N23)cc1
- inhibition [20]: 55.4%

Compound: CCO/C(C)=N/Oc1ccc(/C=C/C(=O)c2ccc(C)cc2)cc1
- IC50 [1]: 15000 nM
- IC50 [2]: 30 nM
- IC50 [3]: 850 nM

Compound: COc1ccc(NC(=O)C2CCN(Cc3ccccc3)CC2)cc1
- IC50 [8]: 253 nM
- IC50 [9]: 165 nM

Compound: Fc1ccc(-c2nnc(N3CCN(c4ccccn4)CC3)o2)c(F)c1
- IC50 [6]: 160 nM
- IC50 [7]: 210 nM

Compound: COC(=O)c1ccc(/C=N/NC(=O)c2ccc(Cl)nc2)cc1
- IC50 [18]: 100 nM
- IC50 [7]: 2800 nM

Compound: COc1ccc2c(c1)C/C(=C/c1ccccc1-c1ccc3nc(N)ccc3c1)C2=O
- IC50 [10]: 14.7 nM
- IC50 [11]: 13.1 nM

Compound: O=C(/C=C/c1ccc(OCc2ccccc2)cc1)c1ccc2c(c1)OCO2
- IC50 [1]: 8610 nM
- IC50 [2]: 1540 nM
- IC50 [3]: 5400 nM

— ChEMBL document CHEMBL6127041, “Dual-target inhibitors based on acetylcholinesterase: Novel agents for Alzheimer's disease” (Eur J Med Chem, 2024)
